{"source": "patent US20060128737A1", "about": "“Androgen receptor agonists” (KAKEN PHARMACEUTICAL CO., LTD., priority 2003, published 2006)", "key": {"[1]": {"target": "T1, rat androgen receptors (rat AR) (Rattus norvegicus, UniProt P15207)", "T1 construct": "from tissue; host or cells: prostate of orchiectomized 11-week-old male SD rats (cytosolic supernatant of homogenate)", "T1 sequence (P15207 1-902)": "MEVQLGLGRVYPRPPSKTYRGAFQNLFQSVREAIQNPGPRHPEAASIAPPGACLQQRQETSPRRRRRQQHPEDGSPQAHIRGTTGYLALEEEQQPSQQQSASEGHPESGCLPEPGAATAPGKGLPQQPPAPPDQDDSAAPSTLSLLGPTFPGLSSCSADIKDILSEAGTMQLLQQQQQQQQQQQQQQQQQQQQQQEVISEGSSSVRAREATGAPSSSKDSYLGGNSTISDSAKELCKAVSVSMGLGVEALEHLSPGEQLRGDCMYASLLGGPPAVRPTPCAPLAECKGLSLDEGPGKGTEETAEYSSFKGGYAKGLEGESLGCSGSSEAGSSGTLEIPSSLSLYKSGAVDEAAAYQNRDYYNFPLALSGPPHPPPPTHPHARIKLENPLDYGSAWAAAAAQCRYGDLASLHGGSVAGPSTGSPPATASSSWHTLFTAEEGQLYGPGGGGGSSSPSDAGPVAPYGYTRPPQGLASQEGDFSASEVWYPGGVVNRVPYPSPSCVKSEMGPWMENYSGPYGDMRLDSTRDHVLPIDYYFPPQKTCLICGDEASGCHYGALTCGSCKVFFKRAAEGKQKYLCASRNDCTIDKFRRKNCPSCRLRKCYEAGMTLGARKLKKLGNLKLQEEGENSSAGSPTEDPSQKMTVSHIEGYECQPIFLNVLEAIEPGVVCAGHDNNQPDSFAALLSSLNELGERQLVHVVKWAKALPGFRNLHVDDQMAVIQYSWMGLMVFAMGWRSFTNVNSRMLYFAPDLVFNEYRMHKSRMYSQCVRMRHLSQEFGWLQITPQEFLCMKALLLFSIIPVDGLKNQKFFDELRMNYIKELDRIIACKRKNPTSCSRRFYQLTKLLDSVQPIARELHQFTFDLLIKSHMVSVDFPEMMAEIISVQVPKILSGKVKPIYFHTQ", "assay": "Test for competitive binding to rat androgen receptors (rat AR)", "conditions": "RBA=100×(IC50 of hydroxyflutamide)/(IC50 of compound); 3H-testosterone, rat prostate AR fraction", "protocol": "Preparation of a rat AR fraction: Prostates were harvested into ice-cooled ET buffer (10 mM Tris, 1 mM EDTA, 5 mM DTT, 10 mM sodium molybdate, pH 7.4) 3 days after orchiectomy in 11-week-old male SD rats. The prostate was finely cut, and ET buffer was added, whereafter the mixture was homogenized using a homogenizer. The homogenate was ultracentrifuged (100,000×g, 60 min, 4° C.), and the supernatant was used as a rat AR fraction (hereinafter referred to as ARF).\nBinding test: ^3H-testosterone (hereinafter referred to as ^3H-T) was diluted with ET buffer. Dihydrotestosterone (DHT) was prepared so as to have a final concentration of 1 μM which was 400 times the maximum concentration of ^3H-T (2.5 nM). The ^3H-T solution was added to a 1.5 ml tube containing DHT, no DHT, or various concentrations of a test compound. Further, 200 μg ARF was added to adjust the final volume to 100 μl. The mixture was incubated for 2 hours at 4° C., and then 300 μl of a 0.05% dextran T70-1.0% activated carbon solution was added. The mixture was further incubated for 15 minutes in ice to remove the free ^3H-T by adsorption. After centrifugation (4° C., 2,500 rpm, 5 min), 275 μl of the supernatant was harvested into a liquid scintillation vial, and 2 ml of Clear Sol was added. The mixture was stirred, allowed to stand, and measured for ^3H radioactivity with a liquid scintillation counter.\nCalculation of the relative binding inhibition rate: The binding inhibition rate (%) of the compound according to the present invention was calculated from the following equation, and the 50% inhibition concentration (IC50) was calculated by the probit analysis of the concentration-binding inhibition curve.\nThe relative binding inhibition rate (RBA: Relative Binding Affinity) was determined from the following equation (Endocrinology 138, 863-870, 1997): RBA=100×(IC50 of hydroxyflutamide)/(IC50 of a compound of the present invention)"}, "[2]": {"tested_on": "orchiectomized (ORX) rats", "assay": "Test Example 2: effect on prostate, levator ani muscle and femoral bone mineral density in ORX rats (subcutaneous)", "type": "in vivo, rat", "conditions": "for Femoral bone mineral density / Weight of levator ani muscle / Weight of prostate: 5 days a week, 4 weeks", "protocol": "Testes were removed from 12-week-old male SD rats. Starting on the next day, the compound of Example 1 (3, 10, 30 mg/kg) or DHT (0.1, 1, 10 mg/kg) was subcutaneously administered once daily for four consecutive weeks on a 5-day-a-week basis. The Example compound and DHT were dissolved in dimethyl sulfoxide and diluted 10-fold with olive oil to prepare solutions with various concentrations for use in the test. In an ORX control group, dimethyl sulfoxide as diluted 10-fold with olive oil was used for the test. Rats which had been falsely operated on without orchiectomy were used as a sham control group. On the next day after final administration, the wet weights of the ventral prostate and levator ani muscle were measured and the right femoral bone mineral density was measured by DEXA (double energy X-ray absorption) to evaluate the in vivo efficacy of the compound of Example 1."}, "[3]": {"tested_on": "orchiectomized (ORX) rats", "assay": "Test Example 5: effect of oral administration on prostate, levator ani muscle and femoral bone mineral density in ORX rats", "type": "in vivo, rat", "protocol": "Testes were removed from 12-week-old male SD rats. Starting on the next day, the compound of Example 1 (100 mg/10 ml/kg) was orally administered once daily for four consecutive weeks on a 5-day-a-week basis. As a positive control, testosterone propionate (TP) (10 mg/kg) was subcutaneously administered once daily on a continuous 5-day-a-week basis. The test compound was suspended in a 0.5% methyl cellulose solution used as a solvent whereas TP was dissolved in dimethyl sulfoxide and diluted 10-fold with olive oil for use in the test. In an ORX control group, dimethyl sulfoxide as diluted 10-fold with olive oil was used for the test. Rats which had been falsely operated on without orchiectomy were used as a sham control group. On the next day after final administration, the wet weights of the ventral prostate and levator ani muscle were measured and the right femoral bone mineral density was measured by DEXA (double energy X-ray absorption) to evaluate the in vivo efficacy of the compound of Example 1. The results are shown in Table 19 and in FIGS. 10 to 12."}, "[4]": {"conditions": "100 mg/kg PO once daily, 5 days a week, 4 weeks"}}, "data": [{"smiles": "COCC(=O)NCC(C)(C)[C@H]1Nc2ccc([N+](=O)[O-])cc2C2C=CC[C@H]21", "note": "(relative stereo) [Example 1, (3aR*,4S*,9bS*)-2-methoxy-N-[2-methyl-2-(8-nitro-3a,4,5,9b-tetrahydro-3H-cyclopenta[c]quinolin-4-yl)propyl]-1-acetamide]", "values": [{"measurement": "RBA (Relative Binding Affinity)", "setting": "[1]", "result": 1076}, {"measurement": "Femoral bone mineral density", "setting": "[2]; 3 mg/kg sc once daily", "result": "116 ± 6", "unit": "mg/cm^2"}, {"measurement": "Weight of levator ani muscle", "setting": "[2]; 3 mg/kg sc once daily", "result": "56 ± 7", "unit": "mg/100 g body weight"}, {"measurement": "Weight of prostate", "setting": "[2]; 3 mg/kg sc once daily", "result": "41 ± 8", "unit": "mg/100 g body weight"}, {"measurement": "Femoral bone mineral density", "setting": "[2]; 10 mg/kg sc once daily", "result": "119 ± 3", "unit": "mg/cm^2"}, {"measurement": "Weight of levator ani muscle", "setting": "[2]; 10 mg/kg sc once daily", "result": "65 ± 6", "unit": "mg/100 g body weight"}, {"measurement": "Weight of prostate", "setting": "[2]; 10 mg/kg sc once daily", "result": "61 ± 10", "unit": "mg/100 g body weight"}, {"measurement": "Prostate weight as % of the level of the sham control group", "setting": "[2]; 30 mg/kg sc", "result": "about 80%"}, {"measurement": "Femoral bone mineral density", "setting": "[2]; 30 mg/kg sc once daily", "result": "122 ± 1", "unit": "mg/cm^2"}, {"measurement": "Weight of levator ani muscle", "setting": "[2]; 30 mg/kg sc once daily", "result": "71 ± 4", "unit": "mg/100 g body weight"}, {"measurement": "Weight of prostate", "setting": "[2]; 30 mg/kg sc once daily", "result": "82 ± 10", "unit": "mg/100 g body weight"}, {"measurement": "Femoral bone mineral density", "setting": "[3]; [4]", "result": "135 ± 6", "unit": "mg/cm^2"}, {"measurement": "Weight of levator ani muscle", "setting": "[3]; [4]", "result": "87 ± 5", "unit": "mg/100 g body weight"}, {"measurement": "Weight of prostate", "setting": "[3]; [4]", "result": "117 ± 23", "unit": "mg/100 g body weight"}, {"measurement": "Prostate weight as % of the level of the sham control group", "setting": "[3]; 100 mg/kg orally", "result": "about 75%"}]}]}
